Results: patent US20200165653A1, “METHOD OF MEASURING FLUID SECRETION FUNCTION OF EPITHELIAL CELLS” (NATIONAL UNIVERSITY CORPORATION TOKYO MEDICAL AND DENTAL …, priority 2017, published 2020)
Structures can show the parent of a compound that is named as a salt. No end group written: not given here.

How the values were obtained:
[1] = tested on: human intestinal organoids; experiment: Organoid swelling observed by phase contrast / time-lapse imaging; assay type: cell-based; settings: for increase in cross-sectional area of organoids: 60 min after induction, same mediator concentrations as FIG. 11; for swelling response induced by endogenous mediator: PGE2 10^−8 M, VIP 10^−7 M, ACh 10^−3 M, histamine 10^−3 M, bradykinin 10^−5 M, serotonin 10^−3 M, up to 60 min after induction
Protocol: The phase contrast images illustrated are prior to swelling induction and 60 minutes after swelling induction. Scale-bar: 100 μm. Induction was by the addition to a culture medium of: PGE2 (10^−8 M, (A)), VIP (10^−7 M, (B)), ACh (10^−3 M, (C)), histamine (10^−3 M, (D)), bradykinin (10^−5 M, (E)), and serotonin (10^−3 M, (F)).
Examination of Endogenous Mediator Candidates for Anion/Fluid Secretion Next, the fluid secretion function measurement method of the present embodiment was employed to examine the direct effect of various endogenous mediators that might possibly induce anion/fluid secretion from intestinal epithelial cells by testing six types of endogenous mediators to determine if they had the capability to induce a swelling response in organoids equivalent to that of forskolin-induced swelling.

[2] = tested on: human jejunum-derived organoids; experiment: Organoid swelling response quantified by cross-sectional area with 3D-scanning system; assay type: cell-based; settings: for dose-response curve profile of swelling: human jejunal organoid, FIG. 12
Protocol: The organoid cross-sectional area was measured using a 3D-Scanning System (Cell3 […], Screen Holdings, Kyoto, Japan) as the image analysis device 100. […] After the passage of a preliminary culture process of leaving for 24 hours after seeding, scanning was then performed both before and 30 min after the addition of the reagent subject to analysis. An image was acquired during scanning in auto-focus (AF) mode. The analysis parameters summarized in following Table 1 were set and the cross-sectional area of recognized organoids measured automatically. Note that changes over time due to the addition of a reagent subjected to analysis can be observed in the following manner. Namely, an object is imaged at time (T0) prior to adding a reagent subjected to analysis (T0 imaging process). Then the same object is imaged at time (TN) when a prescribed time (30 minutes, for example) has elapsed since adding the reagent subjected to analysis. Determination is then made as to whether or not the object is an object subjected to analysis. By performing the selection process and the determination process, the change over time observations are only made for objects determined be subjected to analysis thereby at both time T0 and time TN. Then in an area change calculation process, an area (A0) at time T0 and an area (AN) at time TN are calculated for the objects subject to analysis. The change over time (%) based thereon can be found, for example, using the following formula. (AN-A0)/A0×100 Using forskolin-induced swelling as a positive control, testing was next performed so see if such a swelling response could be quantified using the 3D-scanning system described. To optimize the quantification efficiency and accuracy, organoids were subjected to analysis after performing the preliminary culture process at one day after the last passage. This was done since the organoids generally held their cystic shape at this time point. The thresholds to recognize cross-section borders of each organoid were then optimized as set out in Table 1. Thus utilizing the fluid secretion function measurement method of the present embodiment enables drug response screening to be performed at the same time as determining the dose-dependency curves of a limited number of test reagents. Whether or not the present system could determine the dose-dependency curves of forskolin was thereby tested. The dose-dependency curve for forskolin-induced swelling when using a human jejunum-derived organoids was thereby found to be expressed by a standard sigmoid shaped curve, with the log EC50 value thereof calculated as -7.58 (FIG. 10).

| Compound | increase in cross-sectional area of organoids [1] | swelling response induced by endogenous mediator [1] | dose-response curve profile of swelling [2] | time for which swelling continued ([1]; small intestinal organoids, forskolin 10^−5 M) | time of continuous linear swelling response after stimulation ([2]; forskolin 10^−5 M, observed up to 240 min, area change calculation) | EC50 ([2]; human small intestinal (jejunum-derived) organoids, sigmoid dose-dependency curve, average of at least three independent tests, value is log EC50, read-out: log EC50 of forskolin-induced swelling (converted)) |
| --- | --- | --- | --- | --- | --- | --- |
| CCCCC[C@H](O)/C=C/[C@H]1[C@H](O)CC(=O)[C@@H]1C/C=C\CCCC(=O)O [PGE2, prostaglandin E2] | large overall increase | rapid and continuous response | clear sigmoid-shaped response curve |  |  |  |
| C=C[C@@]1(C)CC(=O)[C@]2(O)[C@@]3(C)[C@@H](O)CCC(C)(C)[C@@H]3[C@H](O)[C@H](OC(C)=O)[C@@]2(C)O1 [forskolin] |  |  |  | at least 60 min | up to 30 min | 26.3 nM |
| NCCc1c[nH]cn1 [histamine] | smaller than for PGE2 or VIP | slow and limited response | markedly lower response profile |  |  |  |
| NCCc1c[nH]c2ccc(O)cc12 [serotonin, serotonin hydrochloride] |  | did not exhibit a clear effect |  |  |  |  |
| vasoactive intestinal polypeptide (HSDAVFTDNYTRLRKQMAVKKYLNSILN; ends and bridges not checked; UniProt P01282 125-152, looked up) [VIP, endogenous mediator acting through Gs-coupled receptors] | large overall increase | rapid and continuous response | clear sigmoid-shaped response curve |  |  |  |
